The source of these data is patent US10494404B2, “Quinolinium conjugates of cyclosporin” (priority 2014, dated 2019).

SMILES strings stand for the structures.

In one series the target is Cylophilin D (CypD) (Homo sapiens, UniProt P30405). Put plainly: Cyclophilin D competitive fluorescence polarization assay. The conditions noted are these: competitive FP assay; FP-CsA 45 nM, enzyme 40 nM; read-out: Ki for cylophilin D binding. Background: Polarisation of emitted light reports the rotation of a fluorescent probe.
The subject of series [1] is Ca^2+ mediated PT pore formation. Description: Calcium retention capacity (CRC) assay, isolated WT mouse liver mitochondria. The conditions noted are these: 8 nM. It counts as biochemical. An excerpt:
In order to assess the efficiency of compounds on Ca^2+ mediated PT pore formation we measured calcium retention capacity (CRC) of isolated mouse liver mitochondria. […] Energised mitochondria take up Ca^2+, resulting in a declining fluorescent signal following the Ca^2+ bolus induced peak. Mitochondria take up and buffer Ca^2+ up to a threshold when intramitochondrial [Ca^2+] reaches threshold to induce PT. […] The amount of Ca^2+ required to induce PT characterizes its Ca^2+ sensitivity and defines mitochondrial CRC. Inhibition of CypD, the Ca^2+ sensor of PT, thus leads to increased CRC.
Further experiments were carried out using the techniques discussed in Example 4.
Subcellular fractionation was performed as previously described (Astin et al, 2013). […] At 4° C., the liver was rinsed in PBS to remove excess blood, and any fat and connective tissue was eliminated. PBS was then replaced with isolation buffer containing 1 mM PMSF, and the liver was chopped into pieces (approximately 2 mm in length). Tissue was then homogenized in this solution until no solid matter remained, and then centrifuged at 800G for 10 minutes at 4° C. The nuclear pellet was then discarded, and the post nuclear supernatant retained, and centrifuged at 10300G for another 10 minutes at 4° C. The postmitochondrial supernatant was discarded, and the mitochondrial pellet was resuspended in isolation buffer and PMSF, and kept on ice. Protein levels were quantified using a ThermoScientific BCA protein quantification assay, as per manufacturer's instructions.
Isolated mitochondria were resuspended (500 μg protein/ml) in MSK buffer (75 mM mannitol, 25 mM sucrose, 5 mM potassium phosphate monobasic, 20 mM Tris-HCl, 100 mM KCl, and 0.1% bovine serum albumin, pH 7.4) supplemented with 10 mM succinate, 1 μM rotenone and 1 μM Fluo5N. 200 μl mitochondrial suspension per well was used in 96 well microplates. Compounds were incubated for ten minutes before the plate was assayed in a Fluostar Optima plate reader, using Ex/Em filters at 480/520 […]; CaCl2 was injected approximately every 6.5 minutes for 80 minutes (12 total injections, final concentration of 75 μM). To calculate % inhibition of Ca^2+ induced pore opening, first areas under each curve were calculated, and controls without CaCl2 addition were subtracted as background. The background corrected values were then expressed as the fraction of controls without mitochondria, representing the total amount of Ca^2+ added, unbuffered by mitochondria. Percentage inhibition for each [compound] was then calculated as the % of the corresponding value for the untreated condition. […] For experiments with CypD −/− mice, 100 ul mitochondrial suspension per well was used. CaCl2) was injected approximately every 6.5 minutes for 135 minutes (20 total injections, final concentration of 266 μM). Data were background corrected and expressed as the fraction of controls without mitochondria, and then normalised to the wild type no drug condition. Significance was assessed by one way ANOVA.

The next series has as its system HepG2 cells. Description: HepG2 high content screening of cell health markers. It is filed as cell-based. Particulars: HepG2, 72 h exposure. The procedure:
HepG2 cells were plated on 96-well tissue culture treated black walled clear bottomed polystyrene plates, 100 μL, (3000 cells) per well. After 24 hours the cells were dosed with the test compounds at a range of concentrations. At the end of the incubation period, the cells were loaded with the relevant dye/antibody for each cell health markers set out below. The plates were then scanned using an automated fluorescent cellular imager [ArrayScan VTI (Thermo Scientific Cellomics)].
The following cell health markers were measured: • a. Cell count—a decreasing number of cells per well indicates toxicity due to necrosis, apoptosis or a reduction in cellular proliferation. • b. Nuclear area—an increase in nuclear size indicates necrosis or G2 cell cycle arrest and a decrease indicates apoptosis. • c. DNA structure—an increase in DNA structure indicates chromosomal instability and DNA fragmentation. • d. […]
HepG2 cells were seeded in black, clear-bottom 96-well tissue culture plates at a density of 3000 cells per well. […] Cell count, nuclear size and DNA structure were also measured Hoechst 33342 (Life Technologies). Following staining of the HepG2 cells fluorescence was analyzed by image acquisition with a Thermo Fisher Cellomics® ArrayScanVTI High Content Screening Reader (ThermoFisher Scientific Inc., Waltham, Mass.) and vHCS™ view software (ThermoFisher Scientific Inc.). […]

Chain of Cylophilin D (CypD) (P30405 30-207): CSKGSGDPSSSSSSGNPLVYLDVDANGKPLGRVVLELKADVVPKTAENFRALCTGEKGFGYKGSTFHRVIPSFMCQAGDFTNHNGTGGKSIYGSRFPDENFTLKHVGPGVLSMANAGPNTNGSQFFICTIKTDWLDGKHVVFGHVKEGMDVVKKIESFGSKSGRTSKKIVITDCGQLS
Procedure for Cylophilin D (CypD): A competitive fluorescence polarization assay (FP-assay) was used.
Polarization was determined by measuring the ratios between parallel and perpendicular polarized light and calculated as described by Roehrl et al 2004.
Titration of a single probe concentration against different enzyme concentrations was used to determine the dissociation constant (Kd) (Nikolovska et al 2004). The inhibitor constant (Ki) was calculated with the equation shown below in Equation A. (Nikolovska et al 2004).
Three replicates were used for this experiment. […] DMSO % in total solution should remain lower than 1%.

For orientation: Ki means the dissociation constant of the complex between target and ligand, obtained from inhibition or displacement. On to `C/C=C/C[C@@H](C)[C@@H](O)[C@H]1C(=O)N[C@@H](CC)C(=O)N(C)C(C/C=C/CCC[n+]2cccc3ccccc32)C(=O)N(C)[C@@H](CC(C)C)C(=O)N[C@@H](C(C)C)C(=O)N(C)[C@@H](CC(C)C)C(=O)N[C@@H](C)C(=O)N[C@H](C)C(=O)N(C)[C@@H](CC(C)C)C(=O)N(C)[C@@H](CC(C)C)C(=O)N(C)[C@@H](C(C)C)C(=O)N1C` (stereo partly shown) [Compound 2, [Sar-(E)-Hexen-2-yl 6-quinolinium]^3 CsA], for which the Ki on Cylophilin D (CypD) was 125 nM.
As for `CC[C@@H]1NC(=O)[C@H]([C@H](O)[C@H](C)C/C=C/CCC[n+]2ccc(N(C)C)c3ccc(C(F)(F)F)cc32)N(C)C(=O)[C@H](C(C)C)N(C)C(=O)[C@H](CC(C)C)N(C)C(=O)[C@H](CC(C)C)N(C)C(=O)[C@@H](C)NC(=O)[C@H](C)NC(=O)[C@H](CC(C)C)N(C)C(=O)[C@H](C(C)C)NC(=O)[C@H](CC(C)C)N(C)C(=O)CN(C)C1=O` [Compound 3, [Gly(1S,2R,E)-10-(4-dimethylamino-7-trifluoromethylquinolinium)1-hydroxy-2-methyldec-4-enoic acid]^1 CsA], in series [1], the “inhibition of Ca2+ mediated PT pore formation” value is listed as “retain high levels inhibition”.
With `C=CCC1C(=O)N(C)[C@@H](CC(C)C)C(=O)N[C@@H](C(C)C)C(=O)N(C)[C@@H](CC(C)C)C(=O)N[C@@H](C)C(=O)N[C@H](C)C(=O)N(C)[C@@H](CC(C)C)C(=O)N(C)[C@@H](CC(C)C)C(=O)N(C)[C@@H](C(C)C)C(=O)N(C)[C@@H]([C@H](O)[C@H](C)C/C=C/CCC[n+]2ccc(N(C)C)c3ccc(C(F)(F)F)cc32)C(=O)N[C@@H](CC)C(=O)N1C` (stereo partly shown) [Compound 4], the “inhibition of Ca2+ mediated PT pore formation” value in series [1] is “retain high levels inhibition”. The inhibition constant Ki at Cylophilin D (CypD) is 73 nM.
Regarding `CC[C@@H]1NC(=O)[C@H]([C@H](O)[C@H](C)C/C=C/CCC[n+]2ccc(O)c3ccccc32)N(C)C(=O)[C@H](C(C)C)N(C)C(=O)[C@H](CC(C)C)N(C)C(=O)[C@H](CC(C)C)N(C)C(=O)[C@@H](C)NC(=O)[C@H](C)NC(=O)[C@H](CC(C)C)N(C)C(=O)[C@H](C(C)C)NC(=O)[C@H](CC(C)C)N(C)C(=O)CN(C)C1=O` [Compound 5, [Gly-(1S,2R,E)-8-(4-hydroxyquinolinium)-1-hydroxy-2-methyloct-4-ene]^1 CsA], the inhibition constant (Ki) on Cylophilin D (CypD) was 64 nM.
As for `C/C=C/C[C@@H](C)[C@@H](O)[C@H]1C(=O)N[C@@H](CC)C(=O)N(C)C(C/C=C/CCC[n+]2ccc(O)c3ccccc32)C(=O)N(C)[C@@H](CC(C)C)C(=O)N[C@@H](C(C)C)C(=O)N(C)[C@@H](CC(C)C)C(=O)N[C@@H](C)C(=O)N[C@H](C)C(=O)N(C)[C@@H](CC(C)C)C(=O)N(C)[C@@H](CC(C)C)C(=O)N(C)[C@@H](C(C)C)C(=O)N1C` (stereo partly shown) [Compound 6, [Sar-(E)-Hexen-2-yl-6-(4-hydroxy)quinolinium]^3 CsA], on Cylophilin D (CypD), the inhibition constant Ki amounted to 46 nM.
As for `CC[C@@H]1NC(=O)[C@H]([C@H](O)[C@H](C)C/C=C/CCC(=O)Nc2ccc(NCc3ccc(F)cc3)nc2N)N(C)C(=O)[C@H](C(C)C)N(C)C(=O)[C@H](CC(C)C)N(C)C(=O)[C@H](CC(C)C)N(C)C(=O)[C@@H](C)NC(=O)[C@H](C)NC(=O)[C@H](CC(C)C)N(C)C(=O)[C@H](C(C)C)NC(=O)[C@H](CC(C)C)N(C)C(=O)CN(C)C1=O` [Reference Compound 1, [Gly-(1S,2R,E)-7-(flupirtine)-1-hydroxy-2-methyloct-4-enamide]^1 CsA, reference compound], the “toxicity (cell health markers) compared with unmodified CsA” value in the series with HepG2 cells is “A similar reduction in toxicity was not observed”.
